Experimental data: ChEMBL document CHEMBL1145352, “Synthesis and cytotoxic activity of trisubstituted-1,3,5-triazines” (Bioorg Med Chem Lett, 2007)
In brackets after ≈: the same amount, converted by molar mass.

Key:
[1] = Inhibition of oxygen evolution rate in spinach chloroplasts; type: functional, Spinacia oleracea
[2] = test system: Mycobacterium tuberculosis; experiment: Antimycobacterial activity against Mycobacterium tuberculosis H37Rv relative to control; type: functional; parameters: concentration or dose not given beside the values
HL-60 [3] = experiment: Photocytotoxicity against human HL60 cells irradiated with 1.25 J cm^-2 UVA dose after 72 hrs by MTT assay; type: functional; details: HL-60, light or radiation study
[4] = test system: Mycobacterium tuberculosis; experiment: Antimycobacterial activity against Mycobacterium tuberculosis H37Rv; type: functional
HL-60 [5] = experiment: Cell cycle arrest in human HL60 cells irradiated with 2.5 J cm^-2 CUVA assessed as accumulation at S phase at 2.5 mM after 72 hrs; type: functional
HL-60 [6] = experiment: Cell cycle arrest in human HL60 cells irradiated with 2.5 J cm^-2 CUVA assessed as accumulation at S phase at 5 mM after 72 hrs; type: functional
HL-60 [7] = experiment: Cell cycle arrest in human HL60 cells irradiated with 2.5 J cm^-2 CUVA assessed as accumulation at S phase at 5 mM after 48 hrs; type: functional
HL-60 [8] = experiment: Cell cycle arrest in human HL60 cells irradiated with 2.5 J cm^-2 CUVA assessed as accumulation at S phase at 5 mM after 24 hrs; type: functional
HL-60 [9] = experiment: Cell cycle arrest in human HL60 cells irradiated with 2.5 J cm^-2 CUVA assessed as accumulation at G1 phase at 2.5 mM after 48 hrs; type: functional
HL-60 [10] = experiment: Induction of apoptosis in human HL60 cells irradiated with 2.5 J cm^-2 CUVA assessed as appearance of sub G1 peak at 2.5 mM after 48 hrs; type: functional
HL-60 [11] = experiment: Cell cycle arrest in human HL60 cells irradiated with 2.5 J cm^-2 CUVA assessed as accumulation at S phase at 2.5 mM after 48 hrs; type: functional
HL-60 [12] = experiment: Cell cycle arrest in human HL60 cells irradiated with 2.5 J cm^-2 CUVA assessed as accumulation at G2 phase at 5 mM after 24 hrs; type: functional
HL-60 [13] = experiment: Cell cycle arrest in human HL60 cells irradiated with 2.5 J cm^-2 CUVA assessed as accumulation at G1 phase at 5 mM after 72 hrs; type: functional
HL-60 [14] = experiment: Induction of apoptosis in human HL60 cells irradiated with 2.5 J cm^-2 CUVA assessed as appearance of sub G1 peak at 5 mM after 72 hrs; type: functional
HL-60 [15] = experiment: Cell cycle arrest in human HL60 cells irradiated with 2.5 J cm^-2 CUVA assessed as accumulation at G2 phase at 2.5 mM after 72 hrs; type: functional
HL-60 [16] = experiment: Cell cycle arrest in human HL60 cells irradiated with 2.5 J cm^-2 CUVA assessed as accumulation at G2 phase at 5 mM after 72 hrs; type: functional
LoVo [17] = experiment: Photocytotoxicity against human LoVo cells irradiated with 2.5 J cm^-2 UVA dose after 72 hrs by MTT assay; type: functional; details: light or radiation study
HL-60 [18] = experiment: Induction of apoptosis in human HL60 cells irradiated with 2.5 J cm^-2 CUVA assessed as appearance of sub G1 peak at 2.5 mM after 24 hrs; type: functional
HL-60 [19] = experiment: Cell cycle arrest in human HL60 cells irradiated with 2.5 J cm^-2 CUVA assessed as accumulation at G1 phase at 5 mM after 24 hrs; type: functional
Chlorella vulgaris = experiment: Antialgal activity against Chlorella vulgaris assessed as inhibition of chlorophyll production; type: functional, organism-based
HL-60 [20] = experiment: Cell cycle arrest in human HL60 cells irradiated with 2.5 J cm^-2 CUVA assessed as accumulation at G2 phase at 2.5 mM after 24 hrs; type: functional
HL-60 [21] = experiment: Induction of apoptosis in human HL60 cells irradiated with 2.5 J cm^-2 CUVA assessed as appearance of sub G1 peak at 5 mM after 24 hrs; type: functional
LoVo [22] = experiment: Photocytotoxicity against human LoVo cells irradiated with 1.25 J cm^-2 UVA dose after 72 hrs by MTT assay; type: functional; details: light or radiation study
HL-60 [23] = experiment: Cell cycle arrest in human HL60 cells irradiated with 2.5 J cm^-2 CUVA assessed as accumulation at G1 phase at 2.5 mM after 24 hrs; type: functional
HL-60 [24] = experiment: Cell cycle arrest in human HL60 cells irradiated with 2.5 J cm^-2 CUVA assessed as accumulation at G1 phase at 5 mM after 48 hrs; type: functional
HL-60 [25] = experiment: Cell cycle arrest in human HL60 cells irradiated with 2.5 J cm^-2 CUVA assessed as accumulation at G2 phase at 5 mM after 48 hrs; type: functional
HL-60 [26] = experiment: Cell cycle arrest in human HL60 cells irradiated with 2.5 J cm^-2 CUVA assessed as accumulation at G1 phase at 2.5 mM after 72 hrs; type: functional
HL-60 [27] = experiment: Induction of apoptosis in human HL60 cells irradiated with 2.5 J cm^-2 CUVA assessed as appearance of sub G1 peak at 5 mM after 48 hrs; type: functional
HL-60 [28] = experiment: Cell cycle arrest in human HL60 cells irradiated with 2.5 J cm^-2 CUVA assessed as accumulation at G2 phase at 2.5 mM after 48 hrs; type: functional
HL-60 [29] = experiment: Induction of apoptosis in human HL60 cells irradiated with 2.5 J cm^-2 CUVA assessed as appearance of sub G1 peak at 2.5 mM after 72 hrs; type: functional
HL-60 [30] = experiment: Cell cycle arrest in human HL60 cells irradiated with 2.5 J cm^-2 CUVA assessed as accumulation at S phase at 2.5 mM after 24 hrs; type: functional

## c1ccc(Nc2nc(Nc3ccccc3)nc(Nc3ccccc3)n2)cc1
[1]
  IC50: 1.072 mmol/dm3
[2]
  Inhibition: 0%
HL-60 [3]
  GI50: > 10 mM
[4]
  MIC: > 6.25 µg/mL

## Oc1nc(O)nc(O)n1
[1]
  IC50: 0.081 mmol/dm3
[2]
  Inhibition: 39%
HL-60 [3]
  GI50: 4.3 mM
[4]
  MIC: > 6.25 µg/mL

## CC(=O)Nc1nc(NC(C)=O)nc(NC(C)=O)n1
[1]
  IC50: 0.148 mmol/dm3
[2]
  Inhibition: 11%
HL-60 [5]
  Activity: 43.8%
HL-60 [6]
  Activity: 37.1%
HL-60 [7]
  Activity: 38.6%
HL-60 [8]
  Activity: 54.3%
HL-60 [9]
  Activity: 44.5%
HL-60 [3]
  GI50: 6.8 mM
HL-60 [10]
  Activity: 27%
HL-60 [11]
  Activity: 45%
HL-60 [12]
  Activity: 11.1%
HL-60 [13]
  Activity: 57.3%
HL-60 [14]
  Activity: 46%
HL-60 [15]
  Activity: 12%
HL-60 [16]
  Activity: 6.9%
LoVo [17]
  GI50: 1.89 mM
HL-60 [18]
  Activity: 13.2%
HL-60 [19]
  Activity: 34.2%
Chlorella vulgaris
  IC50: 0.208 mmol/dm3
HL-60 [20]
  Activity: 10.8%
HL-60 [21]
  Activity: 21%
LoVo [22]
  GI50: 3.5 mM
HL-60 [23]
  Activity: 29.3%
HL-60 [24]
  Activity: 50.3%
HL-60 [25]
  Activity: 11.7%
HL-60 [26]
  Activity: 45.2%
HL-60 [27]
  Activity: 26%
HL-60 [28]
  Activity: 10.3%
HL-60 [29]
  Activity: 40.5%
[4]
  MIC: > 6.25 µg/mL
HL-60 [30]
  Activity: 58.4%

## CNc1nc(NC)nc(NC)n1
[1]
  IC50: 0.118 mmol/dm3
[2]
  Inhibition: 24%
HL-60 [3]
  GI50: > 10 mM
Chlorella vulgaris
  IC50: 0.356 mmol/dm3
[4]
  MIC: > 6.25 µg/mL

## COc1ccc(Nc2nc(Nc3ccc(OC)cc3)nc(Nc3ccc(OC)cc3)n2)cc1
[1]
  IC50: 0.241 mmol/dm3
[2]
  Inhibition: 72%
HL-60 [3]
  GI50: 3.4 mM
Chlorella vulgaris
  IC50: 0.079 mmol/dm3
[4]
  MIC: > 6.25 µg/mL

## CCN(CC)c1nc(N(CC)CC)nc(N(CC)CC)n1
[1]
  IC50: 0.244 mmol/dm3
[2]
  Inhibition: 0%
HL-60 [3]
  GI50: > 10 mM
LoVo [17]
  GI50: 12.5 mM
Chlorella vulgaris
  IC50: 0.067 mmol/dm3
LoVo [22]
  GI50: > 20 mM
[4]
  MIC: > 6.25 µg/mL

## CN(C)c1nc(N(C)C)nc(N(C)C)n1 [ALTRETAMINE]
[1]
  IC50: 0.486 mmol/dm3
[2]
  Inhibition: 28%
HL-60 [3]
  GI50: > 10 mM
LoVo [17]
  GI50: 10.3 mM
Chlorella vulgaris
  IC50: 0.125 mmol/dm3
LoVo [22]
  GI50: 17.2 mM
[4]
  MIC: > 6.25 µg/mL

## CN(C)C(=O)Nc1ccc(Cl)c(Cl)c1 [DCMU]
[1]
  IC50: 0.0019 mmol/dm3
Chlorella vulgaris
  IC50: 0.0073 mmol/dm3

## CO[C@H]1/C=C/O[C@@]2(C)Oc3c(C)c(O)c4c(O)c(c(/C=N/N5CCN(C)CC5)c(O)c4c3C2=O)NC(=O)/C(C)=C\C=C\[C@H](C)[C@H](O)[C@@H](C)[C@@H](O)[C@@H](C)[C@H](OC(C)=O)[C@@H]1C [RIFAMPIN]
[2]
  Inhibition: 100%
[4]
  MIC: 0.125 µg/mL (≈ 0.152 µM)
